Results on three molecules are retold here after patent publication US20250352549A1, “SUBSTITUTED HETEROCYCLIC COMPOUND DERIVATIVES AND THEIR PHARMACEUTICAL USE” (AVELOS THERAPEUTICS INC., priority 0001, published 2025).

The subject of assay [1] is breast cancer MDA-MB-231 cells. The note with it: disclosed in CN 116942819; cited from earlier work.
For assay [2], the system named is T cells. To be noted: disclosed in CN 116942819; cited from earlier work.
For assay [3], the system named is breast cancer MDA-MB-468 cells. To be noted: disclosed in CN 116942819; cited from earlier work.
Assay [4] has as its target Wild-type human active MASTL (Homo sapiens (Human), UniProt Q96GX5). The assay can be described thus: MASTL activity assay. The class given is biochemical. To be noted: ATP 18 μM, biotin tagged 40-mer ENSA peptide 10 nM, 60 minutes at room temperature, HTRF/FRET readout. The protocol:
Wild-type human active MASTL (154 pM) was incubated in assay buffer (50 mM HEPES, 100 mM NaCl, 0.1 mM EGTA, 10 mM MgCl2, 0.01% Tween-20, 0.5 mM TCEP, pH 7.5) with biotin tagged 40-mer ENSA peptide (10 nM), test compound and ATP (18 μM) for 60 minutes at room temperature. Test compounds were assayed using a 12-point dose range consisting of a 0, DMSO control and 10 sequential doses consisting from 0.0005, 0.002, 0.005, 0.014, 0.04, 0.12, 0.37, 1.11, 3.33 and 10 μM. The DMSO concentration was the same (1%) in all samples. An equal volume of detection buffer (assay buffer+267.5 pM Ab-K, 1.25 nM SA-D2, 20 mM EDTA and 400 mM KF) was added to stop the reaction to make a final volume of 20 μl, RT for 60 mins. Activity was measured using a plate reader (PerkinElmer EnSight) by the FRET signal generated between SA-D2 (streptavidin-D2) and Ab-K (anti-phospho-Serine 67 ENSA antibody (rabbit polyclonal, using standard techniques by a commercial supplier) conjugated to Cryptate). HTRF reagents (CisBio) were prepared as per the manufacturer recommendations. The 40-mer biotin-tagged ENSA peptide (synthesised by Bionics) used was based around Serine 67 on ENSA ([…]).
A general note: In TR-FRET formats the signal depends on donor and acceptor labels being close together.

Wild-type human active MASTL, sequence (Q96GX5 whole entry): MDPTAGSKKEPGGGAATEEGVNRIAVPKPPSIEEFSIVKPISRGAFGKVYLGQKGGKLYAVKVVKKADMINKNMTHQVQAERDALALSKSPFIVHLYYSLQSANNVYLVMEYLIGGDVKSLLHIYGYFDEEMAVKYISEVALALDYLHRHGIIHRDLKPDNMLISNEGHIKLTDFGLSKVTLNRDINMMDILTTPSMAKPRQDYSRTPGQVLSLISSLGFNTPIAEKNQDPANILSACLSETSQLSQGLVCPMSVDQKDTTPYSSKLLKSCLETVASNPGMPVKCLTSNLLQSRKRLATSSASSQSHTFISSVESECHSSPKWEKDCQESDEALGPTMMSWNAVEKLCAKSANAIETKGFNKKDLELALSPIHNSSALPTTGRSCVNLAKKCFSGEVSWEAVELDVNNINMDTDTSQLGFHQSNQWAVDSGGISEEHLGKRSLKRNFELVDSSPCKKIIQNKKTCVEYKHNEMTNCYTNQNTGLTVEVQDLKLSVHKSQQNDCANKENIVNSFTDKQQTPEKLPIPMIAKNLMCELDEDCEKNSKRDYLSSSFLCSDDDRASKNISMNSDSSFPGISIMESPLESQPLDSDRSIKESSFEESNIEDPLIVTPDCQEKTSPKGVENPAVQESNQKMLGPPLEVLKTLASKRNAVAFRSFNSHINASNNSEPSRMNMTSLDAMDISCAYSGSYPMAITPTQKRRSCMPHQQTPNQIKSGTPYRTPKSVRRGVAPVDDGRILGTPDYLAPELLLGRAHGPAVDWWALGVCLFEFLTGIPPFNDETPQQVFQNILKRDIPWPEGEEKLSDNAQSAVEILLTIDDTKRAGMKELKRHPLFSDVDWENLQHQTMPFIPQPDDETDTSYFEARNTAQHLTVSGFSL

On to `O=C(Nc1nc2ccccc2[nH]1)c1cccc(-n2cccc2)c1` [MKI-1], for which, in assay [1], the “effect on PD-L1 expression of tumor cells which expressed PD-L1 in a high level and were not affected by interferon” value is recorded as “not possible to effect”. The “anti-tumor function of T cells” value in assay [2] was “effectively enhance the anti-tumor function of T cells”. In assay [3], the “effect on the up-regulation of the interferon-induced PD-L1 expression” value was “remarkable inhibition effect”.

Broadly, the IC50 is the concentration that inhibits the measured activity by half. Read a low IC50 as inhibition by little substance. The molecule `Cc1nc([C@H](Nc2nc(N)nc(-c3ccc4cnc(C)n4c3)n2)C(C)C)c[nH]1` (single isomer, unassigned) [Example 155A, 6-(3-methylimidazo[1,5-a]pyridin-6-yl)-N4-[(1S or 1R)-2-methyl-1-(2-methyl-1H-imidazol-4-yl)propyl]-1,3,5-triazine-2,4-diamine] gave an IC50 in assay [4] of 0.5 to 1 µM.

Molecule `Cc1ncc2ccc(-c3nc(N)nc(N[C@H](c4ccc(F)cn4)C(C)C)n3)cn12` (single isomer, unassigned) [Example 136B, N2-[(1R or 1S)-1-(5-fluoro-2-pyridyl)-2-methyl-propyl]-6-(3-methylimidazo[1,5-a]pyridin-6-yl)-1,3,5-triazine-2,4-diamine] had an IC50 in assay [4] greater than 1 µM.
